Experimental data taken from publication PMC10212229 (Pharmaceutical Research, 2023).
Entries after “also recorded” stand apart in the source; their conditions may differ.

Columns and labels:
[1] = Simcyp ritonavir first-order compound file; set-up: species or system human; conditions: PK and DDI
CYP3A4 = conditions: cited from earlier work
[2] = without ritonavir coadministration; cited from earlier work
[3] = Paxlovid PBPK model verification, nirmatrelvir predicted vs observed exposure; set-up: species or system human
Caco-2 = conditions: cited from earlier work
[4] = In vitro precipitation test of nirmatrelvir SDD formulation; format: physicochemical; conditions: Pfizer data on file
MDCK-LE = conditions: cited from earlier work
[5] = Clinical pharmacokinetics of nirmatrelvir in healthy volunteers; format: in vivo, human; conditions: for renal clearance in the presence and absence of ritonavir: with vs without ritonavir

| Compound | predicted vs observed values, ritonavir model [1] | in vitro fm,CYP3A4 (CYP3A4; formation rate of the major metabolites with selective inhibitors) | main metabolizing enzyme (CYP3A4; in vitro reaction phenotyping data) | half-life [2] [h] | deviation of predicted AUC and Cmax from the observed [3] [%] | Papp (Caco-2) | period remained in solution without precipitating [4] [h] | Papp (MDCK-LE) | oral clearance (CLPO) ([5]; SDD 300 mg single dose without ritonavir, Dataset #1, geometric mean) [L/h] | renal clearance in the presence and absence of ritonavir [5] | renal clearance in the presence and absence of ritonavir ([5]; listed as nirmatrelvir) |
| --- | --- | --- | --- | --- | --- | --- | --- | --- | --- | --- | --- |
| CC(C)c1nc(CN(C)C(=O)N[C@H](C(=O)N[C@@H](Cc2ccccc2)C[C@H](O)[C@H](Cc2ccccc2)NC(=O)OCc2cncs2)C(C)C)cs1 [Ritonavir, ritonavir] | within twofold | – | – | – | – | – | – | – | – | – | – |
| CC(C)(C)[C@H](NC(=O)C(F)(F)F)C(=O)N1C[C@H]2[C@@H]([C@H]1C(=O)N[C@H](C#N)C[C@@H]1CCNC1=O)C2(C)C [Nirmatrelvir, nirmatrelvir] | – | 0.99 | mainly metabolized by CYP3A4; also recorded: predominantly metabolized by CYP3A4 | 2 | ≤ 20 | 0.66–1.19 10^–6 cm/s | 24 | 1.76 10^–6 cm/s | 28.36 | did not change | remains the same |
